How the values were obtained:
[1] = test system: Tyrosine-protein kinase ABL1 (Homo sapiens), P00519 [F317L]; conditions: Compound concentration 1000.0 nM
[2] = biological target: Tyrosine-protein kinase ABL2 (Homo sapiens) (UniProt P42684); conditions: Compound concentration 1000.0 nM
[3] = biological target: RAC-alpha serine/threonine-protein kinase (Homo sapiens) (UniProt P31749); conditions: Compound concentration 1000.0 nM
[4] = biological target: Aurora kinase C (Homo sapiens) (UniProt Q9UQB9); conditions: Compound concentration 1000.0 nM
[5] = biological target: Bone morphogenetic protein receptor type-1A (Homo sapiens) (UniProt P36894); conditions: Compound concentration 1000.0 nM
[6] = test system: Serine/threonine-protein kinase B-raf (Homo sapiens), P15056 [V600E]; conditions: Compound concentration 1000.0 nM
Serine/threonine-protein kinase B-raf (Homo sapiens), P15056 [V600E], sequence (P15056 whole entry V600E): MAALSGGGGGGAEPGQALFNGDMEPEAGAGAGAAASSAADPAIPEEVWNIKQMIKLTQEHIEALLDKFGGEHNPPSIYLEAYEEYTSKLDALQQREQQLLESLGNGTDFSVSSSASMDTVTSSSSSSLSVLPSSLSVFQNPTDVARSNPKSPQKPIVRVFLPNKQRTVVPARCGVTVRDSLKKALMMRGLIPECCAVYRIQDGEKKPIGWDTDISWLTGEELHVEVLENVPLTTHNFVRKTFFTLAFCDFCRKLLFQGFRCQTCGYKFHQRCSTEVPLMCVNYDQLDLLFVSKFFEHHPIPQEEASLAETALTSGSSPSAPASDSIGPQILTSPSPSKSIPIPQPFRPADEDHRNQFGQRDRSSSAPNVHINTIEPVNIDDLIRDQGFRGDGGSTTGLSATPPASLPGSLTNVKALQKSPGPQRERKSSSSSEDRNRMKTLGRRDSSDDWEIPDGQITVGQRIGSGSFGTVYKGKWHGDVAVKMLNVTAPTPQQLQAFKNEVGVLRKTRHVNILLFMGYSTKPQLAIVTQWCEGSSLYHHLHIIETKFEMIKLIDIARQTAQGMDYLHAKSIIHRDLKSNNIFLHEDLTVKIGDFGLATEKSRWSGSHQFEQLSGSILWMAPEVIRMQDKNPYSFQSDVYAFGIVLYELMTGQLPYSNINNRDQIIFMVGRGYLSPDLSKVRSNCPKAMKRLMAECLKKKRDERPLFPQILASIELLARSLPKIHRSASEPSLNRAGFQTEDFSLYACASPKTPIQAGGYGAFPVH

[7] = biological target: Dual specificity protein kinase CLK2 (Homo sapiens) (UniProt P49760); conditions: Compound concentration 1000.0 nM
[8] = biological target: Macrophage colony-stimulating factor 1 receptor (Homo sapiens) (UniProt P07333); conditions: Compound concentration 1000.0 nM
Macrophage colony-stimulating factor 1 receptor (Homo sapiens), sequence (P07333 whole entry, canonical isoform): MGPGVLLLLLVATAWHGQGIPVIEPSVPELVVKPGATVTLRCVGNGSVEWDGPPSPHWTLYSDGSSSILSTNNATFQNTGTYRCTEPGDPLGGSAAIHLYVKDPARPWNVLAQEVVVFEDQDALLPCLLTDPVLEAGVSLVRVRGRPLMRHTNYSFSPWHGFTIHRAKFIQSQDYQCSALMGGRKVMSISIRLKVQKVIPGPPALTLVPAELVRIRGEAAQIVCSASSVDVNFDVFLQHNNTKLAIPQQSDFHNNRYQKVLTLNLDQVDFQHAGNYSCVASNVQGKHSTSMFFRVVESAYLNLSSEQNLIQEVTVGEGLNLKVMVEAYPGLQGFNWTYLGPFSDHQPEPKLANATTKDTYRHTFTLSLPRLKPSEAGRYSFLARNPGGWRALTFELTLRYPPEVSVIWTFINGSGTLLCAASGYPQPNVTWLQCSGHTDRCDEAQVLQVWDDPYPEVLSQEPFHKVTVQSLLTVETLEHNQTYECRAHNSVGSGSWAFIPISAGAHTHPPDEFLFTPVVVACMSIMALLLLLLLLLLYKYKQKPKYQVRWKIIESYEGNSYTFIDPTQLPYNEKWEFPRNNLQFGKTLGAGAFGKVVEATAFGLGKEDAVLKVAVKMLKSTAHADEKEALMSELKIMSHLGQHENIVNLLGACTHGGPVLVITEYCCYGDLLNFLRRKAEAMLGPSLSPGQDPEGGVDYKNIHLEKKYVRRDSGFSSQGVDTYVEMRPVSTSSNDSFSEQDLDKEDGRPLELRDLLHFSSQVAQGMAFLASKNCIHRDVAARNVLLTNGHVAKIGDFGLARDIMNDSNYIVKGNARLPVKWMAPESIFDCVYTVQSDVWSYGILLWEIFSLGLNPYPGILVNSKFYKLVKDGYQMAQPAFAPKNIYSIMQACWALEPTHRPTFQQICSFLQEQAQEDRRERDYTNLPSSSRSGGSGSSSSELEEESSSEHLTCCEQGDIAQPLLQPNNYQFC

[9] = biological target: Macrophage colony-stimulating factor 1 receptor (Homo sapiens) (UniProt P07333); conditions: Compound concentration 1000.0 nM; remark: listed apart in the source
[10] = biological target: Casein kinase I isoform epsilon (Homo sapiens) (UniProt P49674); conditions: Compound concentration 1000.0 nM
[11] = biological target: Casein kinase II subunit alpha (Homo sapiens) (UniProt P68400); conditions: Compound concentration 1000.0 nM
[12] = biological target: Death-associated protein kinase 3 (Homo sapiens) (UniProt O43293); conditions: Compound concentration 1000.0 nM
[13] = biological target: Serine/threonine-protein kinase MRCK gamma (Homo sapiens) (UniProt Q6DT37); conditions: Compound concentration 1000.0 nM
[14] = biological target: Dual specificity tyrosine-phosphorylation-regulated kinase 1B (Homo sapiens) (UniProt Q9Y463); conditions: Compound concentration 1000.0 nM
[15] = test system: Epidermal growth factor receptor (Homo sapiens), P00533 [UNDEFINED MUTATION]; conditions: Compound concentration 1000.0 nM
Epidermal growth factor receptor (Homo sapiens), P00533 [UNDEFINED MUTATION], sequence (P00533 whole entry, looked up, change not shown): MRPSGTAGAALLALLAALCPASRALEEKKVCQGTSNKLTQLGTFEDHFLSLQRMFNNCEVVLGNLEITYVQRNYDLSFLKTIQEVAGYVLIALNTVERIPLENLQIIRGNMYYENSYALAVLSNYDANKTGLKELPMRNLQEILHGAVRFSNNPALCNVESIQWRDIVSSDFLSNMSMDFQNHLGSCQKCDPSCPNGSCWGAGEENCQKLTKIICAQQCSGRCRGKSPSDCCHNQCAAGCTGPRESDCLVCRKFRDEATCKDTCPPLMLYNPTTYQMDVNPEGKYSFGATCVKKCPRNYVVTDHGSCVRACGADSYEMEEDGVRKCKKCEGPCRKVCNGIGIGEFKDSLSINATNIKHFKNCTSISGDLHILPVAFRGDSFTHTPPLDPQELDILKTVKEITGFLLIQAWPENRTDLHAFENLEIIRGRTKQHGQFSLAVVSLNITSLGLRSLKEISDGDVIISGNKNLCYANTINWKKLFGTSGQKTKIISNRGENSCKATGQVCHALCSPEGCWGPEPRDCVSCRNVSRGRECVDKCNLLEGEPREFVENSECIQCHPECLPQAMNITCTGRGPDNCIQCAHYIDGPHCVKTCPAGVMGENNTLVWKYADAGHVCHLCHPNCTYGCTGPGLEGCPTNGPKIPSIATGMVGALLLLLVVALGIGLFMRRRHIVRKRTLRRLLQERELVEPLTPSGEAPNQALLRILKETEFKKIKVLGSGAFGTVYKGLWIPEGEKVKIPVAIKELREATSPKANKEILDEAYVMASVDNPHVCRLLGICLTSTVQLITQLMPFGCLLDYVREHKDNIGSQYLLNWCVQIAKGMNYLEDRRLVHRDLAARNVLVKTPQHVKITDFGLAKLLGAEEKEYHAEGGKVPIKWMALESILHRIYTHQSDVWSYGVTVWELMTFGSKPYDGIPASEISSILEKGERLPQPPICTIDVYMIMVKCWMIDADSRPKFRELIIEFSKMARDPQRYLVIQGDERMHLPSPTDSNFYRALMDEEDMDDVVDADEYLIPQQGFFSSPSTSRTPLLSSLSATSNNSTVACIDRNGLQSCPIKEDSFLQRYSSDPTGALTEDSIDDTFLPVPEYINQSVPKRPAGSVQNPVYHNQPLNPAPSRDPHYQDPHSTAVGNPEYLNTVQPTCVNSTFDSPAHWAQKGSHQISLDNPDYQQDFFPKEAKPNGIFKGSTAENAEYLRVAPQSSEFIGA

[16] = biological target: Ephrin type-B receptor 4 (Homo sapiens) (UniProt P54760); conditions: Compound concentration 1000.0 nM
[17] = biological target: Mitogen-activated protein kinase 15 (Homo sapiens) (UniProt Q8TD08); conditions: Compound concentration 1000.0 nM
[18] = test system: Fibroblast growth factor receptor 3 (Homo sapiens), P22607 [G697C]; conditions: Compound concentration 1000.0 nM
[19] = test system: eIF-2-alpha kinase GCN2 (Homo sapiens), Q9P2K8 [S808G]; conditions: Compound concentration 1000.0 nM
[20] = biological target: Insulin receptor-related protein (Homo sapiens) (UniProt P14616); conditions: Compound concentration 1000.0 nM
[21] = biological target: LIM domain kinase 1 (Homo sapiens) (UniProt P53667); conditions: Compound concentration 1000.0 nM
[22] = biological target: Mitogen-activated protein kinase kinase kinase kinase 5 (Homo sapiens) (UniProt Q9Y4K4); conditions: Compound concentration 1000.0 nM
[23] = biological target: Tyrosine-protein kinase Mer (Homo sapiens) (UniProt Q12866); conditions: Compound concentration 1000.0 nM
[24] = biological target: Myosin light chain kinase family member 4 (Homo sapiens) (UniProt Q86YV6); conditions: Compound concentration 1000.0 nM
[25] = biological target: Serine/threonine-protein kinase 38 (Homo sapiens) (UniProt Q15208); conditions: Compound concentration 1000.0 nM
[26] = biological target: Serine/threonine-protein kinase Nek10 (Homo sapiens) (UniProt Q6ZWH5); conditions: Compound concentration 1000.0 nM
[27] = biological target: Serine/threonine-protein kinase Nek11 (Homo sapiens) (UniProt Q8NG66); conditions: Compound concentration 1000.0 nM
[28] = biological target: Serine/threonine-protein kinase Nek7 (Homo sapiens) (UniProt Q8TDX7); conditions: Compound concentration 1000.0 nM
[29] = biological target: Serine/threonine-protein kinase NIM1 (Homo sapiens) (UniProt Q8IY84); conditions: Compound concentration 1000.0 nM
[30] = biological target: Mitogen-activated protein kinase 12 (Homo sapiens) (UniProt P53778); conditions: Compound concentration 1000.0 nM
Mitogen-activated protein kinase 12 (Homo sapiens), sequence (P53778 whole entry, the tested form may be a part): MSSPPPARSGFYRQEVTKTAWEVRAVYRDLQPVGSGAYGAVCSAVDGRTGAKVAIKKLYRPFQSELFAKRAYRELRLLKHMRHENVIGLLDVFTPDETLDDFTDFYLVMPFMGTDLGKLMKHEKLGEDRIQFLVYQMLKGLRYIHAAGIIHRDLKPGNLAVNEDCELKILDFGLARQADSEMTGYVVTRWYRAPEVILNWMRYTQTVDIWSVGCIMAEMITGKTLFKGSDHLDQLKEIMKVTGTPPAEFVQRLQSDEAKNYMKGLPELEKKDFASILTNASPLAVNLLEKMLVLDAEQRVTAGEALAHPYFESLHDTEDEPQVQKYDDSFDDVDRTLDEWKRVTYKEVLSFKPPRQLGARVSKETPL

[31] = biological target: Phosphatidylinositol 4-phosphate 3-kinase C2 domain-containing subunit beta (Homo sapiens) (UniProt O00750); conditions: Compound concentration 1000.0 nM
Phosphatidylinositol 4-phosphate 3-kinase C2 domain-containing subunit beta (Homo sapiens), sequence (O00750 whole entry, the tested form may be a part, canonical isoform): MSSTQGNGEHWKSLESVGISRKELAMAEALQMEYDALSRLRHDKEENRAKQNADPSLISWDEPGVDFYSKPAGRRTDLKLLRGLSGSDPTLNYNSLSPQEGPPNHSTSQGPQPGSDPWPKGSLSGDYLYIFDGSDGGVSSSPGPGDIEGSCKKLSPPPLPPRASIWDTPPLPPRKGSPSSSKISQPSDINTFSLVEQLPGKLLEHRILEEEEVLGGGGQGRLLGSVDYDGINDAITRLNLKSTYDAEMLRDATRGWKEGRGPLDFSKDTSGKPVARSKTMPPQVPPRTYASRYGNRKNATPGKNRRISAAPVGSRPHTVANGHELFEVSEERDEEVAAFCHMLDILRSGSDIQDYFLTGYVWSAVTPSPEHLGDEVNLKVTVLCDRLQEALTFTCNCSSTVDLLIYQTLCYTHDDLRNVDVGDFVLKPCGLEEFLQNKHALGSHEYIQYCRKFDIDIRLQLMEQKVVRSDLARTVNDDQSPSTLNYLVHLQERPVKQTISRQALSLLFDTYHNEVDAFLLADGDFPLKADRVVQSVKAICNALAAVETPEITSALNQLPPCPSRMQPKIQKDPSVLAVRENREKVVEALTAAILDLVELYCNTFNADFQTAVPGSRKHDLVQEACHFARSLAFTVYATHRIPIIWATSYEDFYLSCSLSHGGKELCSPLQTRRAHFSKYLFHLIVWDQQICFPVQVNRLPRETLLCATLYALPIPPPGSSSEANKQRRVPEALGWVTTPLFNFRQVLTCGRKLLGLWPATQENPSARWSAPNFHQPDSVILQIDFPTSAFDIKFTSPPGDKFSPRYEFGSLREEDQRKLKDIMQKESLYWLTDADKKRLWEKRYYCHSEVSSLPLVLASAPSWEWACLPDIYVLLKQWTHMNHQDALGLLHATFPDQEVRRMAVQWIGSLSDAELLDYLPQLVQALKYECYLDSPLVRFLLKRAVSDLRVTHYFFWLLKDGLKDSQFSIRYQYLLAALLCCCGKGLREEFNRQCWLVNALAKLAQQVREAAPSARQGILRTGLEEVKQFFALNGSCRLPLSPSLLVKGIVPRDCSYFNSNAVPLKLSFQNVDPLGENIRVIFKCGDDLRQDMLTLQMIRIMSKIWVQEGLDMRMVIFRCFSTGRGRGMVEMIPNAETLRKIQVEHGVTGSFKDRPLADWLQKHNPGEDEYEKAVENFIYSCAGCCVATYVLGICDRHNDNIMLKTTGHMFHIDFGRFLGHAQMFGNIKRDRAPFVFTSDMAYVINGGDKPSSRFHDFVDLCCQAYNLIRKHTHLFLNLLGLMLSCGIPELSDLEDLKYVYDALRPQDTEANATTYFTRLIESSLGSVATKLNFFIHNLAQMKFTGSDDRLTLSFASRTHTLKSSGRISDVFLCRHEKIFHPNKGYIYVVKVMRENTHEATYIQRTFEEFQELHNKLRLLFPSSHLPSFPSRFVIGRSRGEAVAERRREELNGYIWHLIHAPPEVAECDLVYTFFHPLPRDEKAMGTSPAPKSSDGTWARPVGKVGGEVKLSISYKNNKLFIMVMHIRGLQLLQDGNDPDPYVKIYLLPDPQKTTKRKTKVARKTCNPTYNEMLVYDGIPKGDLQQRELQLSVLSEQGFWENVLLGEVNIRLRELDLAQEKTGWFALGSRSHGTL

[32] = test system: Phosphatidylinositol 4,5-bisphosphate 3-kinase catalytic subunit alpha isoform (Homo sapiens), P42336 [H1047L]; conditions: Compound concentration 1000.0 nM
[33] = biological target: Serine/threonine-protein kinase pim-1 (Homo sapiens) (UniProt P11309); conditions: Compound concentration 1000.0 nM
[34] = biological target: Phosphatidylinositol 4-phosphate 5-kinase type-1 alpha (Homo sapiens) (UniProt Q99755); conditions: Compound concentration 1000.0 nM
[35] = biological target: Serine/threonine-protein kinase D2 (Homo sapiens) (UniProt Q9BZL6); conditions: Compound concentration 1000.0 nM
[36] = biological target: RAF proto-oncogene serine/threonine-protein kinase (Homo sapiens) (UniProt P04049); conditions: Compound concentration 1000.0 nM
[37] = test system: Proto-oncogene tyrosine-protein kinase receptor Ret (Homo sapiens), P07949 [V804M]; conditions: Compound concentration 1000.0 nM
[38] = biological target: Serine/threonine-protein kinase RIO2 (Homo sapiens) (UniProt Q9BVS4); conditions: Compound concentration 1000.0 nM
[39] = biological target: Rho-associated protein kinase 2 (Homo sapiens) (UniProt O75116); conditions: Compound concentration 1000.0 nM
[40] = biological target: NUAK family SNF1-like kinase 2 (Homo sapiens) (UniProt Q9H093); conditions: Compound concentration 1000.0 nM
[41] = biological target: Tyrosine-protein kinase Srms (Homo sapiens) (UniProt Q9H3Y6); conditions: Compound concentration 1000.0 nM
[42] = biological target: Testis-specific serine/threonine-protein kinase 1 (Homo sapiens) (UniProt Q9BXA7); conditions: Compound concentration 1000.0 nM
[43] = biological target: Serine/threonine-protein kinase 32A (Homo sapiens) (UniProt Q8WU08); conditions: Compound concentration 1000.0 nM
[44] = biological target: Serine/threonine-protein kinase 32B (Homo sapiens) (UniProt Q9NY57); conditions: Compound concentration 1000.0 nM
[45] = biological target: Sigma intracellular receptor 2 (Homo sapiens) (UniProt Q5BJF2); conditions: Compound concentration 10.0 uM

Cc1nc(Cc2cccc(C(F)(F)F)c2)sc1-c1ccc(C(N)=O)nc1 [TP-024n]
residual activity [1]: 93% | residual activity [2]: 100% | residual activity [3]: 82% | residual activity [4]: 100% | residual activity [5]: 76% | residual activity [6]: 100% | residual activity [7]: 100% | residual activity [8]: 85% | residual activity [9]: 100% | residual activity [10]: 100% | residual activity [11]: 100% | residual activity [12]: 88% | residual activity [13]: 100% | residual activity [14]: 100% | residual activity [15]: 0% | residual activity [16]: 100% | residual activity [17]: 100% | residual activity [18]: 76% | residual activity [19]: 100% | residual activity [20]: 100% | residual activity [21]: 100% | residual activity [22]: 87% | residual activity [23]: 98% | residual activity [24]: 91% | residual activity [25]: 81% | residual activity [26]: 100% | residual activity [27]: 100% | residual activity [28]: 98% | residual activity [29]: 100% | residual activity [30]: 100% | residual activity [31]: 82% | residual activity [32]: 72% | residual activity [33]: 96% | residual activity [34]: 100% | residual activity [35]: 76% | residual activity [36]: 70% | residual activity [37]: 88% | residual activity [38]: 98% | residual activity [39]: 59% | residual activity [40]: 100% | residual activity [41]: 77% | residual activity [42]: 54% | residual activity [43]: 76% | residual activity [44]: 69% | inhibition [45]: -8.52%

Cc1cc(-n2nc(Cc3cc(F)cc(C(F)(F)F)c3)nc2C)ccc1C(N)=O [TP-024]
residual activity [1]: 100% | residual activity [2]: 100% | residual activity [3]: 94% | residual activity [4]: 100% | residual activity [5]: 85% | residual activity [6]: 100% | residual activity [7]: 94% | residual activity [8]: 100% | residual activity [9]: 100% | residual activity [10]: 100% | residual activity [11]: 100% | residual activity [12]: 87% | residual activity [13]: 100% | residual activity [14]: 100% | residual activity [15]: 100% | residual activity [16]: 100% | residual activity [17]: 95% | residual activity [18]: 100% | residual activity [19]: 100% | residual activity [20]: 100% | residual activity [21]: 100% | residual activity [22]: 100% | residual activity [23]: 100% | residual activity [24]: 100% | residual activity [25]: 83% | residual activity [26]: 100% | residual activity [27]: 100% | residual activity [28]: 97% | residual activity [29]: 100% | residual activity [30]: 100% | residual activity [31]: 87% | residual activity [32]: 87% | residual activity [33]: 100% | residual activity [34]: 100% | residual activity [35]: 94% | residual activity [36]: 87% | residual activity [37]: 100% | residual activity [38]: 100% | residual activity [39]: 96% | residual activity [40]: 100% | residual activity [41]: 98% | residual activity [42]: 90% | residual activity [43]: 85% | residual activity [44]: 100% | inhibition [45]: -7.3%

— ChEMBL document CHEMBL4507305, “Data for DCP probe TP-024” (2021)
